Measured values taken from patent US20170304388A1, “NEW INDICATION OF CARDIOVASCULAR DRUGS FOR PREPARATION OF CANCER INHIBITION PHARMACEUTICAL COMPOSITION” (LAUNX BIOMEDICAL CO., LTD., priority 2014, published 2017).
Structures can show the parent of a compound that is named as a salt.

Assays:
Format in all cases: cell-based
[1] = tested on: HepG2 (Hepatocellular Carcinoma); assay: Cell viability analysis (WST-1), HepG2; conditions: Table 4, repeated experiments, drug 10 μM; for viability at 10 µM: Homo sapiens, HepG2, 72 h, WST-1, read-out: survival rate (viability) of cancer cells, HepG2
TOV-21G = assay: Cell viability analysis (WST-1), TOV-21G; conditions: Table 4, repeated experiments, drug 10 μM; for viability at 10 µM: Homo sapiens, TOV21G, 72 h, read-out: survival rate (viability) of cancer cells, TOV-21G
Experimental: (§1) Subculture the different types of cancer cells. The cancer cells includes lung cancer, gastric cancer, hepatic cancer, colon cancer, skin cancer, cervical cancer, prostate cancer, bladder cancer, breast cancer, leukemia, pancreatic cancer, ovarian cancer, tongue cancer, osteosarcoma, and renal cancer. The cell numbers were counted and reseed as 2×10^6 in cell culture plate/flask. Then, the culture medium for culturing the cell lines was added to a volume of 10 ml, and the cells were cultured for 2-3 days. Then, the cells were suspended for loading into 96-well plates. The cell number was 3000 cells and the volume of the culture medium was 100 ul each well.
(§2) Removing the original culture medium from 96-well plate. Then add 100 μl of commercially drug at a concentration of 10 μM per well. After 72 hours, add the diluted WST-1 reagent to the well with 100 μl/well, and the diluted WST-1 reagent was acquired from the dilution of 9:1 medium and WST-1 stock reagent. Finally, the total volume of each well are 200 μl/well. Culture the 96-well plate at 37° C. for 30 to 90 minutes. Detecting and calculating the survival rate of each cancer cells with an ELISA reader at OD450 nm. The lower viability of cancer cells represents better inhibition effect via the drugs. Otherwise, the higher viability of cancer cells represents worse inhibition effect via the drugs.
(§3) According to the above mentioned cardiovascular drugs for cancer growth inhibition in Table 3, the inventors took the repeat experiments for the cardiovascular drugs to check the growth inhibitory effects of cancer cells by the cardiovascular drugs. […] 4.

786-O = assay: Cell viability analysis (WST-1), 786-O; conditions: Table 4, repeated experiments, drug 10 μM; for viability at 10 µM: Homo sapiens, 786-0, 72 h, read-out: survival rate (viability) of cancer cells, 786-O
Experimental: as §1, §2, §3

NIH-OVCAR-3 = assay: Cell viability analysis (WST-1), NIH-OVCAR-3; conditions: Homo sapiens, OVCAR-3, 72 h, Table 4, repeated experiments, drug 10 μM, read-out: survival rate (viability) of cancer cells, NIH-OVCAR-3
Experimental: as §1, §2, §3

[2] = tested on: HeLa (Cervix Adenocarcinoma); assay: Cell viability analysis (WST-1), HeLa; conditions: Homo sapiens, HeLa, 72 h, Table 4, repeated experiments, drug 10 μM, WST-1, read-out: survival rate (viability) of cancer cells, HeLa
U2OS = assay: Cell viability analysis (WST-1), U2OS; conditions: Table 4, repeated experiments, drug 10 μM; for viability at 10 µM: Homo sapiens, U2OS, 72 h, read-out: survival rate (viability) of cancer cells, U2OS
Experimental: as §1, §2, §3

MDA-MB231 = assay: Cell viability analysis (WST-1), MDA-MB231; conditions: Homo sapiens, MDA-MB-231, 72 h, Table 4, repeated experiments, drug 10 μM, read-out: survival rate (viability) of cancer cells, MDA-MB231
[3] = tested on: A375 (Amelanotic Melanoma); assay: Cell viability analysis (WST-1), A375; conditions: Table 4, repeated experiments, drug 10 μM; for viability at 10 µM: Homo sapiens, A-375, 72 h, WST-1, read-out: survival rate (viability) of cancer cells, A375
[4] = tested on: LoVo (Colorectal Adenocarcinoma); assay: Cell viability analysis (WST-1), LoVo; conditions: Homo sapiens, LoVo, 72 h, Table 4, repeated experiments, drug 10 μM, WST-1, read-out: survival rate (viability) of cancer cells, LoVo
[5] = tested on: AGS (Gastric Adenocarcinoma); assay: Cell viability analysis (WST-1), AGS; conditions: Table 4, repeated experiments, drug 10 μM; for viability at 10 µM: 72 h, WST-1, read-out: survival rate (viability) of cancer cells, AGS
[6] = tested on: MCF7 (Mammary Gland, Adenocarcinoma); assay: Cell viability analysis (WST-1), MCF7; conditions: Homo sapiens, MCF7, 72 h, Table 4, repeated experiments, drug 10 μM, WST-1, read-out: survival rate (viability) of cancer cells, MCF-7
[7] = tested on: HCT116 (Colorectal Carcinoma); assay: Cell viability analysis (WST-1), HCT116; conditions: Homo sapiens, HCT-116, 72 h, Table 4, repeated experiments, drug 10 μM, WST-1, read-out: survival rate (viability) of cancer cells, HCT116
Hep3B = assay: Cell viability analysis (WST-1), Hep3B; conditions: Table 4, repeated experiments, drug 10 μM; for viability at 10 µM: Homo sapiens, Hep3B, 72 h, read-out: survival rate (viability) of cancer cells, Hep3B
Experimental: as §1, §2, §3

C-33A = assay: Cell viability analysis (WST-1), C-33A; conditions: Homo sapiens, C-33-A, 72 h, Table 4, repeated experiments, drug 10 μM, read-out: survival rate (viability) of cancer cells, C-33A
Experimental: as §1, §2, §3

SAS = assay: Cell viability analysis (WST-1), SAS; conditions: Table 4, repeated experiments, drug 10 μM; for viability at 10 µM: 72 h, read-out: survival rate (viability) of cancer cells, SAS
Experimental: as §1, §2, §3

BxPC-3 = assay: Cell viability analysis (WST-1), BxPC-3; conditions: Table 4, repeated experiments, drug 10 μM; for viability at 10 µM: Homo sapiens, BXPC-3, 72 h, read-out: survival rate (viability) of cancer cells, BxPC-3
Experimental: as §1, §2, §3

T24 = assay: Cell viability analysis (WST-1), T24; conditions: Table 4, repeated experiments, drug 10 μM; for viability at 10 µM: Homo sapiens, T-24, 72 h, read-out: survival rate (viability) of cancer cells, T24
Experimental: as §1, §2, §3

[8] = tested on: A549 (Lung Adenocarcinoma); assay: Cell viability analysis (WST-1), A549; conditions: Table 4, repeated experiments, drug 10 μM; for viability at 10 µM: Homo sapiens, A549, 72 h, WST-1, read-out: survival rate (viability) of cancer cells, A549
[9] = tested on: PC3 (Prostate Adenocarcinoma); assay: Cell viability analysis (WST-1), PC3; conditions: 72 h, Table 4, repeated experiments, drug 10 μM, WST-1, read-out: survival rate (viability) of cancer cells, PC-3
[10] = tested on: MKN-45 (Gastric Adenocarcinoma); assay: Cell viability analysis (WST-1), MKN-45; conditions: Table 4, repeated experiments, drug 10 μM; for viability at 10 µM: Homo sapiens, MKN-45, 72 h, WST-1, read-out: survival rate (viability) of cancer cells, MKN-45
AsPC-1 = assay: Cell viability analysis (WST-1), AsPC-1; conditions: Homo sapiens, ASPC1, 72 h, Table 4, repeated experiments, drug 10 μM, read-out: survival rate (viability) of cancer cells, AsPC-1
Experimental: as §1, §2, §3

BCC = assay: Cell viability analysis (WST-1), BCC; conditions: Table 4, repeated experiments, drug 10 μM; for viability at 10 µM: BCC, 72 h, read-out: survival rate (viability) of cancer cells, BCC
[11] = tested on: TSGH-8301 (Urinary Bladder Carcinoma); assay: Cell viability analysis (WST-1), TSGH-8301; conditions: Table 4, repeated experiments, drug 10 μM; for viability at 10 µM: 72 h, WST-1, read-out: survival rate (viability) of cancer cells, TSGH-8301
[12] = tested on: H1650 (Lung Adenocarcinoma); assay: Cell viability analysis (WST-1), H1650; conditions: Table 4, repeated experiments, drug 10 μM; for viability at 10 µM: Homo sapiens, NCI-H1650, 72 h, WST-1, read-out: survival rate (viability) of cancer cells, H1650
cancer cell lines = assay: Growth inhibitory effects on the panel of cancer cell lines; conditions: drug 10 μM, 72 hours, WST-1
From the text: For cell viability analysis, the cardiovascular drugs include peripheral vasodilator reaming enhancer, angiotensin converting agent inhibitor, hypotension and shock therapeutic agent, diuretic, antiarrhythmic agent, antiarralciton drug, antihypertensive agent, anticoagulant thrombolytic agent, cardiac tonic, intravenous (hemorrhoids) therapeutic agent, are used to test the inhibition effect of cancer cell.

Compound	viability at 10 µM [1] [%]	viability at 10 µM (TOV-21G) [%]	viability at 10 µM (786-O) [%]	viability at 10 µM (NIH-OVCAR-3) [%]	viability at 10 µM [2] [%]	viability at 10 µM (U2OS) [%]	viability at 10 µM (MDA-MB231) [%]	viability at 10 µM [3] [%]	viability at 10 µM [4] [%]	viability at 10 µM [5] [%]	viability at 10 µM [6] [%]	viability at 10 µM [7] [%]	viability at 10 µM (Hep3B) [%]	viability at 10 µM (C-33A) [%]	viability at 10 µM (SAS) [%]	viability at 10 µM (BxPC-3) [%]	viability at 10 µM (T24) [%]	viability at 10 µM [8] [%]	viability at 10 µM [9] [%]	viability at 10 µM (AsPC-1) [%]	other results
C[C@@H]1O[C@@H](O[C@H]2C[C@@H](O)[C@]3(CO)[C@H]4[C@H](O)C[C@]5(C)[C@@H](C6=CC(=O)OC6)CC[C@]5(O)[C@@H]4CC[C@]3(O)C2)[C@H](O)[C@H](O)[C@H]1O [Ouabain]	38.1	15.9	14.5	42.3	23.1	22.8	44.5	18.4	39.7	16.6	29.1	15.9	33.4	35.5	20.2	27	17.6	15.1	25.8	20.1	viability at 10 µM [10]: 53%; viability at 10 µM (BCC): 25.6%; viability at 10 µM [11]: 43.6%; viability at 10 µM [12]: 38.7%
COc1cc2nc(N3CCN(C(=O)c4ccco4)CC3)nc(N)c2cc1OC [Prazosin HCl]	87.2	91.9	79.5	88.9	90.9	98	85.1	77.9	95.7	86.8	87.6	96.4	116	97.2	114	54	88.5	72.2	–	80.4	inhibition effect on different cancer cell lines (in words) (cancer cell lines): significant inhibition effect; viability at 10 µM [10]: 70.1%; viability at 10 µM (BCC): 73.5%; viability at 10 µM [11]: 99.8%
CCOC(=O)C1=C(COCCN)NC(C)=C(C(=O)OC)C1c1ccccc1Cl (centres unmarked) [Amlodipine besylate (Norvase), Amlodipine besylate]	–	–	–	91.6	–	–	82.7	–	85.6	–	80.5	78.3	–	33.7	–	–	–	–	73.6	87.8	survival rate (viability) of cancer cells, HepG2 ([1]; 72 hours, WST-1): 95.01; survival rate (viability) of cancer cells, TOV-21G (TOV-21G; 72 hours): 93.55; survival rate (viability) of cancer cells, 786-O (786-O; 72 hours): 73.16; survival rate (viability) of cancer cells, U2OS (U2OS; 72 hours): 71.06; survival rate (viability) of cancer cells, A375 ([3]; 72 hours, WST-1): 136.6675; inhibition effect on different cancer cell lines (in words) (cancer cell lines): significant inhibition effect; survival rate (viability) of cancer cells, AGS ([5]; 72 hours, WST-1): 12.18; survival rate (viability) of cancer cells, Hep3B (Hep3B; 72 hours): 123.4192; survival rate (viability) of cancer cells, SAS (SAS; 72 hours): 94.7983; survival rate (viability) of cancer cells, BxPC-3 (BxPC-3; 72 hours): 99.11; survival rate (viability) of cancer cells, T24 (T24; 72 hours): 93.08; survival rate (viability) of cancer cells, A549 ([8]; 72 hours, WST-1): 110.3104; survival rate (viability) of cancer cells, MKN-45 ([10]; 72 hours, WST-1): 86.43; survival rate (viability) of cancer cells, BCC (BCC; 72 hours): 102.9778; survival rate (viability) of cancer cells, TSGH-8301 ([11]; 72 hours, WST-1): 36.2492; survival rate (viability) of cancer cells, H1650 ([12]; 72 hours, WST-1): 110.2477
COC(=O)C1=C(C)NC(C)=C(C(=O)OC2CCCN(Cc3ccccc3)C2)C1c1cccc([N+](=O)[O-])c1 (centres unmarked) [Benidipine hydrochloride]	83.6	47.5	78.9	85.2	92.9	54.2	77.3	76	69	87.8	77.3	90.6	98.8	105	64.5	73.8	61	70.3	88.5	63.4	inhibition effect on different cancer cell lines (in words) (cancer cell lines): significant inhibition effect; viability at 10 µM [10]: 92.9%; viability at 10 µM [11]: 81.5%; viability at 10 µM [12]: 64.5%
CCCCc1nc(Cl)c(CO)n1Cc1ccc(-c2ccccc2-c2nn[nH]n2)cc1 [Losartan potassium]	93.9	78.6	96.3	98.7	83.4	105	–	96.6	106	74.1	87.6	106	103	108	95.7	77.7	66.3	96	120	86.4	inhibition effect on different cancer cell lines (in words) (cancer cell lines): significant inhibition effect; viability at 10 µM [10]: 82.8%; viability at 10 µM (BCC): 90.2%; viability at 10 µM [11]: 92%; viability at 10 µM [12]: 77.2%
